Numbers after ± are expanded uncertainties.
Assay: refractive index (Na D-line) (dimensionless)
Conditions: 293.1 K; 101.33 kPa; Liquid; Standard Abbe refractometry

**Q.** For CN1CCCC1=O [N-methylpyrrolidone], which refractive index is on record?
**A.** 1.4686 ± 0.0012

— the NIST ThermoML archive (doi:10.1021/je049706p)
